Patent publication US20230103554A1, “TNFa SIGNALING [sequence] TUMOR-PROMOTING INFLAMMATION THAT CAN BE TARGETED TO THERAPY” (Baylor College of Medicine, priority 2020, published 2023)

Key:
Assay type in all cases: cell-based, human
[1] = test system: NF-κB signaling in NB cells; test: Intracellular IκBα in NB population of co-culture (PhosFlow flow cytometry)
Procedure: (§1) Monocytes were directly cultured with wild-type or TNF, TNFR1, TNFR2 KO NB cell lines in ULA plates for 24 hours. Activation of NF-kB in monocytes and NB was measured by flow cytometry and cytokine production measured by ELISA from co-culture supernatant. To evaluate the contact-dependence of monocyte activation by NB, monocytes were cultured in ULA plates with seven-day NB conditioned medium mixed 1:1 with complete monocyte medium for 24 hours and analyzed for IL-6 production. To assess the growth advantage of NB cultured with monocytes, NB-luc cell lines and monocytes were seeded in tissue culture-treated white 96-well plates (1:1 ratio) and cultured for four days. Luminescence was measured using a TECAN Spark plate reader (TECAN). To evaluate changes in proliferation, NB was pulsed for 10 minutes in CellTrace Violet (2 μM, Invitrogen) and seeded at 100,000 cells per well in a 12-well tissue culture-treated plate. Monocytes were added directly to the NB monolayer at a density of 100,000 per well and incubated for four days. CellTrace Violet expression was analyzed by flow cytometry.
To evaluate the expression of TNFα in NB and monocytes, cells were first stimulated with LPS (50 ng/mL) in the presence of GolgiStop (BD Biosciences) and fixed using CytoFix/Cytoperm buffer (BD Biosciences). Cells were then stained with TNFα-PE (BD Biosciences). To evaluate the expression of TNFR1 and TNFR2 on NB and monocytes, cells were stained with TNFR1-BV421 and TNFR2-APC (BD Biosciences) in FACS staining buffer containing 0.05% sodium azide to prevent receptor/antibody processing. To estimate changes in NF-kB expression, treated co-cultures were first stained with ZombieViolet (1 μL/test, Biolegend) to counterstain dead cells and APC-H7 CD45 and/or FITC-CD14 to label monocytes for 20 minutes at room temperature. […] All flow samples were run using an LSRII 5-laser flow cytometer (Texas Children's Hospital Cancer Center Flow Cytometry Core, Houston, Tex.) and analyzed using FlowJo Software (Treestar).

monocyte IL-6 production = test: NB-monocyte co-culture, IL-6 ELISA of supernatant; conditions: 24 hours
Procedure: as §1
(§2) Cytokines released by monocytes were detected within co-culture supernatants using the Human TNF-alpha Quantikine ELISA Kit (TNFα, R&D Systems) and the Human IL-6 Quantikine ELISA Kit (IL-6, R&D Systems) according to manufacturer's guidelines. ELISA plates were read using a TECAN Spark plate reader (TECAN). Global cytokine regulation was evaluated using a custom Luminex panel containing the following cytokines: CX3CL1, CXCL10, EGF, FGF-2, Flt3L, G-CSF, GM-CSF, IL-1α, IL-1β, IL-1Ra, IL-4, IL-6, IL-8, IL-10, IL-12 (p40), IL-12 (p′70), M-CSF, MCP-1, MCP-3, MDC, MIP-1α, MIP-1β, TGFα, TNFα, TNFβ, and VEGF-A (Human Cytokine Panel A, Millipore-Sigma).

sTNFα production = test: NB-monocyte co-culture, TNFα ELISA of supernatant; conditions: 24 hours
Procedure: as §1, §2

CHLA-255 = test: CellTrace Violet proliferation of NB co-cultured with monocytes; conditions: CHLA-255 CTV-pulsed + monocytes, 10 μg/mL etanercept, four days
Procedure: (15A) TNFα level within co-culture supernatant was determined by TNFα ELISA. Mean TNFα concentration±SD of representative data from two monocyte donors run in triplicate. (FIG. 15B) Supernatant IL-6 levels were determined by ELISA. Mean IL-6 concentration±SD of representative data from two monocyte donors run in triplicate (FIG. 15C) Intracellular IκBα expression level within CD14+GD2− monocyte population was determined by flow cytometry and IκBα MFI was normalized to monocyte only control. Mean normalized IκBα MFI±SD and representative from experiments with two monocyte donors run in triplicate. (FIG. 15D) Intracellular IκBα expression level within CD14-GD2+NB population was determined by flow cytometry and IκBα MFI was normalized to NB only control. […] NB luminescence was used to evaluate relative viability of cell line. Results are normalized mean luminescence±SD, n=6 replicates per condition. […] Cells undergoing multiple (2+) divisions were quantified as a percentage of total cells and normalized to NB (0) and Ctrl (1). […]
Monocytes were directly cultured with wild-type or TNF, TNFR1, TNFR2 KO NB cell lines in ULA plates for 24 hours. Activation of NF-kB in monocytes and NB was measured by flow cytometry and cytokine production measured by ELISA from co-culture supernatant. […] Luminescence was measured using a TECAN Spark plate reader (TECAN). […]

[2] = SK-N-AS + monocytes, vs IgG control

etanercept was tested, and the “reversal of IκBα degradation in NB” value ([1]; CHLA-255 + monocytes, 10 μg/mL etanercept, 24 hours (FIG. 15D)) was “partial”, the “IκBα levels in NB cells” value ([1]; SK-N-AS + monocytes, etanercept, 24 hours) was “restored IκBα levels to the levels found in NB cells cultured alone” and the IL-6 production (monocyte IL-6 production; CHLA-255 + monocytes, 10 μg/mL etanercept, vs IgG control (FIG. 15B)) was “almost entirely blocked”. For the same substance, the “IL-6 level in co-culture supernatant” value (monocyte IL-6 production; [2]) was “decrease”, the sTNFα production (sTNFα production; CHLA-255 + monocytes, 10 μg/mL etanercept, vs IgG control (FIG. 15A)) was “almost entirely blocked” and the “TNFα level in co-culture supernatant” value (sTNFα production; [2]) was “decrease”. The “reduction of monocyte-induced increase in NB cells undergoing multiple divisions” value (CHLA-255) was 56%.
